Experimental data: US9340590B2 (priority 2011, dated 2016)
Where two headings read alike, the source gives them in different places. Positions of bridges follow the written chain, without caps; N, C: chain ends. Residues, ends and D or L forms follow the SMILES beside them.

What was measured:
Assay in all cases: cell-based
hNav1.5 = hNav1.5 (Homo sapiens, UniProt Q14524); conditions: IonWorks Quattro, read-out: IWQ Use Nav1.5
hNav1.7 = hNav1.7 (Homo sapiens, UniProt Q15858); assay type: cell-based; conditions: IonWorks Quattro, read-out: IWQ Use Nav1.7
hNav1.3 = hNav1.3 (Homo sapiens, UniProt Q9NY46); conditions: IonWorks Quattro, read-out: IWQ Use Nav1.3
[1] = clamped to −110 mV, depolarized to −10 mV, 5 min after compound, n=2
[2] = use-dependent protocol, hNav1.5
[3] = use-dependent protocol, hNav1.7
[4] = use-dependent protocol, hNav1.3

hNav1.5, sequence (Q14524 whole entry, looked up): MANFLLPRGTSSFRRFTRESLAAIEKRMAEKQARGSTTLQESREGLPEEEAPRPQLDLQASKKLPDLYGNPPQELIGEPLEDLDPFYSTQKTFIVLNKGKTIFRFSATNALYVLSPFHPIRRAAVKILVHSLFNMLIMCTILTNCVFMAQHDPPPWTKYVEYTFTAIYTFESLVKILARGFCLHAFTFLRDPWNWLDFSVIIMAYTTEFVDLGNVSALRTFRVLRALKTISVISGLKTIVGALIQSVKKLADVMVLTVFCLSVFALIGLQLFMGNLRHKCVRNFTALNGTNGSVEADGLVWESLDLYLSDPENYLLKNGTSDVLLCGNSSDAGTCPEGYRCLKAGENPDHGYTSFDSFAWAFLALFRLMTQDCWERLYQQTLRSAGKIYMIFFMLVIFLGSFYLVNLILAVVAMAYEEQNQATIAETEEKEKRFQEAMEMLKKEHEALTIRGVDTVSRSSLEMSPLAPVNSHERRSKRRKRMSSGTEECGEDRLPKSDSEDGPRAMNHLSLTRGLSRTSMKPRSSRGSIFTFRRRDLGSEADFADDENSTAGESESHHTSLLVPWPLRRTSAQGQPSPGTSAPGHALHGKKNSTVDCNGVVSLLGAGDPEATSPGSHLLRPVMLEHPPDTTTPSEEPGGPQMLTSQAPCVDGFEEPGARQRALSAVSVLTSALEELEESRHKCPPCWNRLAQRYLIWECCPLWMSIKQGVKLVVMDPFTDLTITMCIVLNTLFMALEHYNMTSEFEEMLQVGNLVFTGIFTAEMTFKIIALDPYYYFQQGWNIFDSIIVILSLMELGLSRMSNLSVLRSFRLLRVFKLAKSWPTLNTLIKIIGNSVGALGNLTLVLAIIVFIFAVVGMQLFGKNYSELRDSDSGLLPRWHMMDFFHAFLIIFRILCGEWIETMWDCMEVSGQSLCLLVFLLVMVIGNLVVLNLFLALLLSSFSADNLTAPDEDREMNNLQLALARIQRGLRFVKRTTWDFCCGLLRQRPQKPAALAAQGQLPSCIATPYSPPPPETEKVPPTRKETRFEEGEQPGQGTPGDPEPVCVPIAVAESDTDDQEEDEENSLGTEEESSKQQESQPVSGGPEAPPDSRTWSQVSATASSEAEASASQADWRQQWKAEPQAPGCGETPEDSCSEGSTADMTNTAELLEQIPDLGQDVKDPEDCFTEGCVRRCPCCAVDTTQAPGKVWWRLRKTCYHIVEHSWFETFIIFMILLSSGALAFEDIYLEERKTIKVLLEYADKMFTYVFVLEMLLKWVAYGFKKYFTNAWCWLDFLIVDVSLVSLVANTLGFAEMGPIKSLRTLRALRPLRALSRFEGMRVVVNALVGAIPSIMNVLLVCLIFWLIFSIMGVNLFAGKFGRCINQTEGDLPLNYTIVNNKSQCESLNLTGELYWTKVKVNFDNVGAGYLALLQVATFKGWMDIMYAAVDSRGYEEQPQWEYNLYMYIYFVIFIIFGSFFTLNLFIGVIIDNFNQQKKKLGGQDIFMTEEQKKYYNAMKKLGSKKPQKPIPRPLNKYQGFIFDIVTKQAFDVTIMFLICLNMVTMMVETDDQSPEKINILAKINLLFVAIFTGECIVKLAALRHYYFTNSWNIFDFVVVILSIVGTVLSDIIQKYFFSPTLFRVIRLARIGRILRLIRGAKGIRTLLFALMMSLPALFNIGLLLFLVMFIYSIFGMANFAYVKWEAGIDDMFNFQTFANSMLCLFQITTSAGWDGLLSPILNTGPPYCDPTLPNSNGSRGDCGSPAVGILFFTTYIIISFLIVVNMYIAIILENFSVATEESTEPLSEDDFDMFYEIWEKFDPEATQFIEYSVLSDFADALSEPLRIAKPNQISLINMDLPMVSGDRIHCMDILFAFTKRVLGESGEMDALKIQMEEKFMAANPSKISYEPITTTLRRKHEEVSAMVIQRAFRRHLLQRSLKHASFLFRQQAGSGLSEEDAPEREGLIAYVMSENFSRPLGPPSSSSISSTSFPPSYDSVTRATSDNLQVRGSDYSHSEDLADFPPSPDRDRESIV
hNav1.7, sequence (Q15858 whole entry, looked up): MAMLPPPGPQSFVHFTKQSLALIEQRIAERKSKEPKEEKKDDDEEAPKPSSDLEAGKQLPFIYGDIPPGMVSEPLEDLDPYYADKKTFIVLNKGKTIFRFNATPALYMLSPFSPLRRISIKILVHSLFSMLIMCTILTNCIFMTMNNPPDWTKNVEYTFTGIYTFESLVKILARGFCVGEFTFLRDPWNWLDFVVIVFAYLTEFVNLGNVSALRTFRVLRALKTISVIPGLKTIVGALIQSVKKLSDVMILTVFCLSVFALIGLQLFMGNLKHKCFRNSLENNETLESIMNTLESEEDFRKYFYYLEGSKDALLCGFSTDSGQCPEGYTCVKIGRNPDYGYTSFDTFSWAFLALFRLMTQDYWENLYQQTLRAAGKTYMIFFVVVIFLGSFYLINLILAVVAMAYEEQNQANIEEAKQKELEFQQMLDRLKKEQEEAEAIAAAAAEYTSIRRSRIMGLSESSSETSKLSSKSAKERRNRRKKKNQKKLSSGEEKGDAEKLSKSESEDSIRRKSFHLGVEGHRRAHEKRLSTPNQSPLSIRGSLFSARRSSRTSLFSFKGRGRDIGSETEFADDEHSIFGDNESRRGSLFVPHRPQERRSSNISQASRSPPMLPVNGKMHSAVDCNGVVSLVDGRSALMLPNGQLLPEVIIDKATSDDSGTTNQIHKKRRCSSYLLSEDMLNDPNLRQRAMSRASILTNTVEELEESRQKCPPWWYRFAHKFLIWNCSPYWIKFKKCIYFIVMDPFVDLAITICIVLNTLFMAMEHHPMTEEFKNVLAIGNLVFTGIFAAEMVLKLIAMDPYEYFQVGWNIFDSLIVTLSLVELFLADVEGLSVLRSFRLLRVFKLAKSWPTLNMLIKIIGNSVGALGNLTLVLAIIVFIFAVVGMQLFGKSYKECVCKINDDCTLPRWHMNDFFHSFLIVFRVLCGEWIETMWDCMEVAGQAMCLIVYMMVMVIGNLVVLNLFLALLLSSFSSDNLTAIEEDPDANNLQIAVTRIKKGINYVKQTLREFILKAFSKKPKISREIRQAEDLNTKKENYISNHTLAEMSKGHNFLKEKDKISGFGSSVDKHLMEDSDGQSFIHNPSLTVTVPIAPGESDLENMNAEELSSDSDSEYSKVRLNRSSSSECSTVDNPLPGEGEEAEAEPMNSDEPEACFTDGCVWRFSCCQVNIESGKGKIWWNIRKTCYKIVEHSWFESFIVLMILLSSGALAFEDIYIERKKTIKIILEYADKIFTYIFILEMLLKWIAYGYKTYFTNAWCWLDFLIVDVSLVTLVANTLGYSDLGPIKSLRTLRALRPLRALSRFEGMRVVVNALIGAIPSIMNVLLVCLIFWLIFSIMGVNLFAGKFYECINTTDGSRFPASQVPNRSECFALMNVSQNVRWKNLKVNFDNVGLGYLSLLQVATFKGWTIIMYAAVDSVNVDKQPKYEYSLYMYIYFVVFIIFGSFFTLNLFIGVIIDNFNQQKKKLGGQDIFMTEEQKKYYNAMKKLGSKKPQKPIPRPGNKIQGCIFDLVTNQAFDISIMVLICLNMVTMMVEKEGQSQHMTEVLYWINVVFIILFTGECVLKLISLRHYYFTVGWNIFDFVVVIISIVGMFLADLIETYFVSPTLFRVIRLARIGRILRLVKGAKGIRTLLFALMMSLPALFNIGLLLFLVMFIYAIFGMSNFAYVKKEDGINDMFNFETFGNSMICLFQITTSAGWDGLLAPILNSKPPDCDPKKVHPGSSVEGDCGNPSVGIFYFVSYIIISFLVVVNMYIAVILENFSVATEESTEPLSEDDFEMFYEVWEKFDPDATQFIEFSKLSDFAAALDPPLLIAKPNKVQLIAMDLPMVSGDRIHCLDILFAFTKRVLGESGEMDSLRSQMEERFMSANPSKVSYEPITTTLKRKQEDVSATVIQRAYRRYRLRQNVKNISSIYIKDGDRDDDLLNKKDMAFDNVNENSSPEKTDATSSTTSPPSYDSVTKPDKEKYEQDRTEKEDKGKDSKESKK

Row | Structure (SMILES) | IC50 (hNav1.5; use-dependent block, hNav1.5) | IC50 (hNav1.7; use-dependent block, hNav1.7) | IC50 (hNav1.3; use-dependent block, hNav1.3) | other results
1 | CC[C@H](C)[C@@H]1NC(=O)[C@@H]2CSSC[C@@H]3NC(=O)[C@H](C(C)C)NC(=O)[C@H](CC(C)C)NC(=O)[C@H](CC(N)=O)NC(=O)[C@@H]4CCCN4C(=O)[C@H](CCCNC(=N)N)NC(=O)[C@H](CSSC[C@H](NC(=O)[C@@H](N)CC(=O)O)C(=O)N[C@@H](CC(C)C)C(=O)NCC(=O)N[C@@H](C)C(=O)N[C@@H](Cc4ccccc4)C(=O)N[C@@H](CCCNC(=N)N)C(=O)N[C@@H](CCCCN)C(=O)N2)NC(=O)[C@H](CSSC[C@@H](C(=O)N[C@@H](CCCCN)C(=O)N[C@@H](Cc2ccc(O)cc2)C(=O)N[C@H](C(=O)N[C@@H](Cc2ccccc2)C(N)=O)C(C)C)NC(=O)[C@H](Cc2c[nH]c4ccccc24)NC(=O)[C@H](CCC(=O)O)NC(=O)[C@H](Cc2c[nH]cn2)NC(=O)[C@H]([C@@H](C)O)NC(=O)[C@H](CCCNC(=N)N)NC(=O)[C@H](CO)NC3=O)NC(=O)[C@H](CCCCN)NC(=O)[C@H](CC(=O)O)NC(=O)[C@H](CC(N)=O)NC(=O)[C@H](CC(=O)O)NC(=O)[C@@H]2CCCN2C1=O [compound 729] (H-DCLGAFRKCIPDNDKCCRPNLVCSRTHEWCKYVF-NH2; disulfide 2-17, 9-23, 16-30) | 48000 nM | 1100 nM | 1800 nM | –
2 | CSCC[C@@H]1NC(=O)[C@H](Cc2ccccc2)NC(=O)CNC(=O)[C@H](CC(C)C)NC(=O)[C@@H](NC(=O)[C@H](CC(=O)O)NC(=O)[C@@H](N)Cc2c[nH]c3ccccc23)CSSC[C@@H]2NC(=O)[C@@H]3CSSC[C@@H](C(=O)N[C@@H](CCCCN)C(=O)N[C@@H](Cc4ccc(O)cc4)C(=O)N[C@H](C(=O)N[C@@H](Cc4ccccc4)C(N)=O)C(C)C)NC(=O)[C@H](Cc4c[nH]c5ccccc45)NC(=O)[C@H](CCCCN)NC(=O)[C@H](Cc4c[nH]cn4)NC(=O)[C@H]([C@@H](C)O)NC(=O)[C@H](CCCNC(=N)N)NC(=O)[C@H](CO)NC(=O)[C@H](CSSC[C@H](NC(=O)[C@H](CCCCN)NC(=O)[C@H](CCCNC(=N)N)NC1=O)C(=O)N[C@@H](Cc1cccc4ccccc14)C(=O)N1CCC[C@H]1C(=O)N[C@@H](CC(=O)O)C(=O)N[C@@H](CC(N)=O)C(=O)N[C@@H](CC(=O)O)C(=O)N[C@@H](CCCCN)C(=O)N3)NC(=O)[C@H](C(C)C)NC(=O)[C@H](CC(C)C)NC(=O)[C@H](CC(N)=O)NC(=O)[C@@H]1CCCN1C(=O)[C@H](CCCNC(=N)N)NC2=O [compound 464] | > 5000 nM | 200 nM | 220 nM | –
3 | CC[C@H](C)[C@@H]1NC(=O)[C@@H]2CSSC[C@@H]3NC(=O)[C@H](C(C)C)NC(=O)[C@H](CC(C)C)NC(=O)[C@H](CC(N)=O)NC(=O)[C@@H]4CCCN4C(=O)[C@H](CCCNC(=N)N)NC(=O)[C@H](CSSC[C@H](NC(=O)[C@@H](N)CC(=O)O)C(=O)N[C@@H](CC(C)C)C(=O)NCC(=O)N[C@@H](C)C(=O)N[C@@H](CCSC)C(=O)N[C@@H](CCCNC(=N)N)C(=O)N[C@@H](CCCCN)C(=O)N2)NC(=O)[C@H](CSSC[C@@H](C(=O)N[C@@H](CCCCN)C(=O)N[C@@H](Cc2ccc(O)cc2)C(=O)N[C@@H](C)C(=O)N[C@@H](Cc2ccccc2)C(N)=O)NC(=O)[C@H](Cc2c[nH]c4ccccc24)NC(=O)[C@H](CCCCN)NC(=O)[C@H](Cc2c[nH]cn2)NC(=O)[C@H]([C@@H](C)O)NC(=O)[C@H](CCCNC(=N)N)NC(=O)[C@H](CO)NC3=O)NC(=O)[C@H](CCCCN)NC(=O)[C@H](CC(=O)O)NC(=O)[C@H](CC(N)=O)NC(=O)[C@H](CC(=O)O)NC(=O)[C@@H]2CCCN2C1=O [compound 426] (H-DCLGAMRKCIPDNDKCCRPNLVCSRTHKWCKYAF-NH2; disulfide 2-17, 9-23, 16-30) | > 5000 nM | 580 nM | 1580 nM | –
4 | CC[C@H](C)[C@@H]1NC(=O)[C@@H]2CSSC[C@@H]3NC(=O)[C@H](C(C)C)NC(=O)[C@H](CC(C)C)NC(=O)[C@H](CC(N)=O)NC(=O)[C@@H]4CCCN4C(=O)[C@H](CCCNC(=N)N)NC(=O)[C@H](CSSC[C@H](NC(=O)[C@@H](N)CC(=O)O)C(=O)N[C@@H](CC(C)C)C(=O)NCC(=O)N[C@@H](Cc4ccccc4)C(=O)N[C@@H]([C@@H](C)O)C(=O)N[C@@H](CCCNC(=N)N)C(=O)N[C@@H](CCCCN)C(=O)N2)NC(=O)[C@H](CSSC[C@@H](C(=O)N[C@@H](CCCCN)C(=O)N[C@@H](Cc2ccc(O)cc2)C(=O)N[C@H](C(=O)N[C@@H](Cc2ccccc2)C(N)=O)C(C)C)NC(=O)[C@H](Cc2c[nH]c4ccccc24)NC(=O)[C@H](CCCCN)NC(=O)[C@H](Cc2c[nH]cn2)NC(=O)[C@H]([C@@H](C)O)NC(=O)[C@H](CCCNC(=N)N)NC(=O)[C@H](CO)NC3=O)NC(=O)[C@H](CCCCN)NC(=O)[C@H](CC(=O)O)NC(=O)[C@H](CC(N)=O)NC(=O)[C@H](CC(=O)O)NC(=O)[C@@H]2CCCN2C1=O [SEQ ID NO: 285] (H-DCLGFTRKCIPDNDKCCRPNLVCSRTHKWCKYVF-NH2; disulfide 2-17, 9-23, 16-30) | – | – | – | IC50 (hNav1.5; [1]): 18700 nM; IC50 (hNav1.7; [1]): 590 nM; IC50 (hNav1.3; [1]): 280 nM
5 | CC[C@H](C)[C@@H]1NC(=O)[C@@H]2CSSC[C@@H]3NC(=O)[C@H](C(C)C)NC(=O)[C@H](CC(C)C)NC(=O)[C@H](CC(N)=O)NC(=O)[C@@H]4CCCN4C(=O)[C@H](CCCNC(=N)N)NC(=O)[C@H](CSSC[C@H](NC(=O)[C@@H](N)CC(=O)O)C(=O)N[C@@H](CC(C)C)C(=O)NCC(=O)N[C@@H](C)C(=O)NCC(=O)N[C@@H](CCCNC(=N)N)C(=O)N[C@@H](CCCCN)C(=O)N2)NC(=O)[C@H](CSSC[C@@H](C(=O)N[C@@H](CCCCN)C(=O)N[C@@H](Cc2ccc(O)cc2)C(=O)N[C@H](C(=O)N[C@@H](Cc2ccccc2)C(N)=O)C(C)C)NC(=O)[C@H](Cc2c[nH]c4ccccc24)NC(=O)[C@H](CCCCN)NC(=O)[C@H](Cc2c[nH]cn2)NC(=O)[C@H]([C@@H](C)O)NC(=O)[C@H](CCCNC(=N)N)NC(=O)[C@H](CO)NC3=O)NC(=O)[C@H](CCCCN)NC(=O)[C@H](CC(=O)O)NC(=O)[C@H](CC(N)=O)NC(=O)[C@H](CC(=O)O)NC(=O)[C@@H]2CCCN2C1=O [compound 697] (H-DCLGAGRKCIPDNDKCCRPNLVCSRTHKWCKYVF-NH2; disulfide 2-17, 9-23, 16-30) | – | – | – | IC50 (hNav1.5; [2]): > 5000 nM; IC50 (hNav1.7; [3]): 8100 nM; IC50 (hNav1.3; [4]): 4400 nM
6 | CC[C@H](C)[C@@H]1NC(=O)[C@@H]2CSSC[C@@H]3NC(=O)[C@H](C(C)C)NC(=O)[C@H](CC(C)C)NC(=O)[C@H](CC(N)=O)NC(=O)[C@@H]4CCCN4C(=O)[C@H](CCCNC(=N)N)NC(=O)[C@H](CSSC[C@H](NC(=O)[C@@H](N)CC(=O)O)C(=O)N[C@@H](CC(C)C)C(=O)NCC(=O)N[C@@H](CCC(C)C)C(=O)N[C@@H](CCSC)C(=O)N[C@@H](CCCNC(=N)N)C(=O)N[C@@H](CCCCN)C(=O)N2)NC(=O)[C@H](CSSC[C@@H](C(=O)N[C@@H](CCCCN)C(=O)N[C@@H](Cc2ccc(O)cc2)C(=O)N[C@H](C(=O)N[C@@H](Cc2ccccc2)C(N)=O)C(C)C)NC(=O)[C@H](Cc2c[nH]c4ccccc24)NC(=O)[C@H](CCCCN)NC(=O)[C@H](Cc2c[nH]cn2)NC(=O)[C@H]([C@@H](C)O)NC(=O)[C@H](CCCNC(=N)N)NC(=O)[C@H](CO)NC3=O)NC(=O)[C@H](CCCCN)NC(=O)[C@H](CC(=O)O)NC(=O)[C@H](CC(N)=O)NC(=O)[C@H](CC(=O)O)NC(=O)[C@@H]2CCCN2C1=O [compound 679] | – | – | – | IC50 (hNav1.5; [2]): > 5000 nM; IC50 (hNav1.7; [3]): 86 nM; IC50 (hNav1.3; [4]): 240 nM
7 | CC[C@H](C)[C@@H]1NC(=O)[C@@H]2CSSC[C@@H]3NC(=O)[C@H](C(C)C)NC(=O)[C@H](CC(C)C)NC(=O)[C@H](CC(N)=O)NC(=O)[C@@H]4CCCN4C(=O)[C@H](CCCNC(=N)N)NC(=O)[C@H](CSSC[C@H](NC(=O)[C@@H](N)CC(=O)O)C(=O)N[C@@H](CC(C)C)C(=O)NCC(=O)N[C@@H](C)C(=O)N[C@@H](CCSC)C(=O)N[C@@H](CCCNC(=N)N)C(=O)N[C@@H](CCCCN)C(=O)N2)NC(=O)[C@H](CSSC[C@@H](C(=O)N[C@@H](CCCCN)C(=O)N[C@@H](Cc2ccc(O)cc2)C(=O)N[C@H](C(=O)N[C@@H](Cc2ccccc2)C(N)=O)C(C)C)NC(=O)[C@H](Cc2c[nH]c4ccccc24)NC(=O)[C@H](CCCCN)NC(=O)[C@H](CCC(=O)O)NC(=O)[C@H]([C@@H](C)O)NC(=O)[C@H](CCCNC(=N)N)NC(=O)[C@H](CO)NC3=O)NC(=O)[C@H](CCCCN)NC(=O)[C@H](CC(=O)O)NC(=O)[C@H](CC(N)=O)NC(=O)[C@H](CC(=O)O)NC(=O)[C@@H]2CCCN2C1=O [compound 788] (H-DCLGAMRKCIPDNDKCCRPNLVCSRTEKWCKYVF-NH2; disulfide 2-17, 9-23, 16-30) | 29700 nM | > 5000 nM | > 5000 nM | –
8 | CC[C@H](C)[C@@H]1NC(=O)[C@@H]2CSSC[C@@H]3NC(=O)[C@H](C(C)C)NC(=O)[C@H](CC(C)C)NC(=O)[C@H](CC(N)=O)NC(=O)[C@@H]4CCCN4C(=O)[C@H](CCCNC(=N)N)NC(=O)[C@H](CSSC[C@H](NC(=O)[C@@H](N)CC(=O)O)C(=O)N[C@@H](CC(C)C)C(=O)NCC(=O)N[C@@H](C)C(=O)N[C@@H](CC(C)C)C(=O)N[C@@H](CCCNC(=N)N)C(=O)N[C@@H](CCCCN)C(=O)N2)NC(=O)[C@H](CSSC[C@@H](C(=O)N[C@@H](CCCCN)C(=O)N[C@@H](Cc2ccc(O)cc2)C(=O)N[C@H](C(=O)N[C@@H](Cc2ccccc2)C(=O)O)C(C)C)NC(=O)[C@H](Cc2c[nH]c4ccccc24)NC(=O)[C@H](CCC(=O)O)NC(=O)[C@H](Cc2c[nH]cn2)NC(=O)[C@H]([C@@H](C)O)NC(=O)[C@H](CCCNC(=N)N)NC(=O)[C@H](CO)NC3=O)NC(=O)[C@H](CCCCN)NC(=O)[C@H](CC(=O)O)NC(=O)[C@H](CC(N)=O)NC(=O)[C@H](CC(=O)O)NC(=O)[C@@H]2CCCN2C1=O [compound 855] | > 5000 nM | > 5000 nM | > 5000 nM | –
